Data as given in patent publication US9546201B2, “MUC-1 cytoplasmic domain peptides as inhibitors of cancer” (DANA-FARBER CANCER INSTITUTE, INC., priority 2008, dated 2017).
Like-named read-outs stand apart in the source and are kept apart here. Where a SMILES comes first, the peptide text is derived from it. Where no end group is shown, it is not given here. [ ]: non-standard residue; d: D form.

Experiments:
[1] = test system: ZR-75-1 breast tumor xenografts
Description: FIGS. 5A-C. […] (FIG. 5A) Four to six week-old female Balb-c nu/nu mice were implanted with 17-β-estradiol plugs. After 24 h, ZR-75-1 breast cancer cells (imbedded in matrigel) were injected subcutaneously in the flank. When tumors were ˜150 mm3, the mice were paired matched into groups and injected intraperitoneally with PBS (vehicle control; closed squares), 50 mg/kg MUC1/AQA peptide (control peptide; open squares) or 10 mg/kg MUC1/CQC peptide (closed triangles) daily for 21 d. Another group was treated with 50 mg/kg MUC1/CQC peptide daily (⇑) for 6 d (open triangles). Mice were weighed twice weekly and tumor measurements were performed every 4 d. (FIGS. 5B and 5C). On day 24 (asterisk), tumors harvested from the control group and the group treated with 50 mg/kg/d×6d were stained with H&E (FIG. 5B) and with an antibody against MUC1 (FIG. 5C).
(FIG. 6A) Mice were injected with ZR-75-1 cells as described in the legend to FIG. 5A. When tumors were ˜275 mm^3, the mice were paired matched into groups and injected intraperitoneally with PBS (vehicle control; open squares) or 30 mg/kg MUC1/CQC peptide (closed squares) daily for 21 days (solid horizontal bar). […] The treated mice were monitored until day 52 when tumors were harvested for H&E staining (FIG. 6B).
Balb-c nu/nu female mice (Charles River Laboratories, Wilmington, Mass.), 4-6 weeks old weighing 18-22 grams, were implanted subcutaneously with 17-β-estradiol plugs (0.72 mg; Innovative Research, Sarasota, Fla.) using a trocar gun. After 24 h, 1×10^7 ZR-75-1 cells imbedded in Matri-Gel (BD Biosciences) were injected subcutaneously in the flank. When tumors were detectable at ˜150 mm^3 (Cohort 1) or 275 mm^3 (Cohort 2), the mice were pair matched into treatment and control groups. Each group contained 5 mice, each of which was ear tagged and followed throughout the study. Initial dosing was administered at the time of pair matching (day 1). Phosphate-buffered saline (vehicle), MUC1/CQC peptide and MUC1/AQA peptide were administered daily by intraperitoneal injection. Mice were weighed twice weekly, and tumor measurements were performed using calipers every 4 d. Tumor volume (V) was calculated using the formula V=W2×L/2, where W and L are the smaller and larger diameters, respectively. At sacrifice, the mice were perfused with saline and then phosphate-buffered formalin by cardiac administration. Tumors were excised, immersion fixed for 4 h, dehydrated through a graded series of ethanols, and processed for routine paraffin embedding. Tumors were evaluated by H&E staining and for immunoperoxidase staining with anti-MUC1 as described (Kufe, 1984).
To determine if administration of the MUC1/CQC peptide is associated with effects on body weight, five female nude (nu/nu) mice were injected intraperitoneally (IP) once each day at a dose of 50 mg/kg. […] To assess anti-tumor activity, ZR-75-1 cells (1×10^7) were implanted subcutaneously into the flanks of nude mice. After 12 d, mice bearing tumors of approximately 150 mm^3 were treated with the MUC1/CQC peptide at doses of 10 and 50 mg/kg/d. As controls, mice were treated with vehicle alone or with the MUC1/AQA peptide. […] To assess in part the basis for the activity, tumors harvested from control and treated mice were examined by histopathology. […] Sections of the tumors were also stained with an antibody against MUC1.
Studies were also performed on larger tumors (˜275 mm^3) (FIG. 6A).

MUC1-C in ZR-75-1 cells = target: T1, MUC1-C in ZR-75-1 cells (Homo sapiens, UniProt P15941); assay: Immunoblot of whole cell and nuclear lysates, ZR-75-1; format: cell-based; conditions: 5 μM peptide for 3 d; for decreases in nuclear MUC1-C levels: nuclear lysates; for cellular MUC1-C levels: whole cell lysates
T1 construct: translated as a single polypeptide and cleaved into N- and C-terminal subunits in the endoplasmic reticulum; endogenous in cells; host or cells: ZR-75-1 and MCF-7 human breast cancer cells
T1 sequence (P15941 1098-1255 limits assumed): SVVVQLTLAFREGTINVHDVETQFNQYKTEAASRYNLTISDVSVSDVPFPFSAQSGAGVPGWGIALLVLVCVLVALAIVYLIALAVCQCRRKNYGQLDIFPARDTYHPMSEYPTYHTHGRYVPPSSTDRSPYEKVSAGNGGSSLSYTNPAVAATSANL
Description: FIGS. 2A-C. MUC1/CQC peptide blocks nuclear localization of MUC1-C. (FIG. 2A) ZR-75-1 cells were incubated with 5 μM FITC-labeled MUC1/CQC peptide for the indicated times and then analyzed by flow cytometry. The mean fluorescence index (MFI) is included in each of the panels. (FIGS. 2B-C) ZR-75-1 (FIG. 2B) and MCF-7 (FIG. 2C) cells were incubated in the presence of 5 μM MUC1/CQC or MUC1/AQA peptide for 3 d. Whole cell lysates (WCL) (left panels) and nuclear lysates (right panels) were immunoblotted with the indicated antibodies.
Whole cell and nuclear lysates were prepared as described (Leng et al., 2007). Soluble proteins were subjected to immunoprecipitation with anti-Flag (Sigma, St. Louis, Mo.). Immunoprecitates and soluble proteins were analyzed by immunoblotting with anti-His (Cell Signaling Technology, Danvers, Mass.), anti-GFP (Millipore, Danvers, Mass.), anti-Flag, anti-MUC1-C (Abl; NeoMarkers, Fremont, Calif.), anti-lamin B (EMD, La Jolla, Calif.) or anti-β-actin (Sigma). Reactivity was detected with horseradish peroxidase-conjugated second antibodies and chemiluminescence.
Human ZR-75-1 and MCF-7 breast cancer cells overexpress endogenous MUC1, and thus represent potential models for evaluating effects of the MUC1/CQC peptide (Ramasamy et al., 2007). To assess uptake, the ZR-75-1 cells were incubated with 5 μM FITC-MUC1/CQC peptide (FIG. 2A). […] Oligomerization of MUC1-C is necessary for its nuclear import (Leng et al., 2007). Treatment of ZR-75-1 cells with the MUC1/CQC or the MUC1/AQA peptide had no effect on cellular MUC1-C levels (FIG. 2B). […] These findings indicate that the MUC1/CQC peptide blocks MUC1-C oligomerization and thereby targeting of MUC1-C to the nucleus.

[2] = 30 mg/kg/d×21 d, tumors harvested on day 52

Row | Molecule | anti-tumor activity ([1]; 50 mg/kg/d for 21 d) | decreases in nuclear MUC1-C levels (MUC1-C in ZR-75-1 cells) | cellular MUC1-C levels (MUC1-C in ZR-75-1 cells) | tumor growth ([1]; 10 mg/kg/d×21 d IP, tumors ~150 mm3, compared with MUC1/AQA 50 mg/kg/d) | MUC1 expression in tumors [1, 2] | tumor histopathology (H&E) [1, 2] | tumor growth ([1]; 30 mg/kg/d×21 d IP, larger tumors ~275 mm3) | tumor growth during treatment ([1]; 50 mg/kg/d IP, initial 7 d, tumors ~150 mm3) | tumor growth ([1]; 10 and 30 mg/kg/d for 21 d) | tumor histopathology (H&E) ([1]; 10 and 50 mg/kg, compared with vehicle or MUC1/AQA) | MUC1 expression in tumors (anti-MUC1 staining) ([1]; tumors ~150 mm3 cohort, compared with control and MUC1/AQA)
1 | MUC1/AQA: control peptide in which the CQC motif was altered to AQA, with poly-dArg transduction domain; SEQ ID NO: 60 ([dR][dR][dR][dR][dR][dR][dR][dR][dR]AQARRKNYGQLDIFP) [reference compound] | no anti-tumor activity | not | no effect | – | – | – | – | – | – | – | –
2 | CC[C@H](C)[C@H](NC(=O)[C@H](CC(=O)O)NC(=O)[C@H](CC(C)C)NC(=O)[C@H](CCC(N)=O)NC(=O)CNC(=O)[C@H](Cc1ccc(O)cc1)NC(=O)[C@H](CC(N)=O)NC(=O)[C@H](CCCCN)NC(=O)[C@H](CCCNC(=N)N)NC(=O)[C@H](CCCNC(=N)N)NC(=O)[C@H](CS)NC(=O)[C@H](CCC(N)=O)NC(=O)[C@H](CS)NC(=O)[C@@H](CCCNC(=N)N)NC(=O)[C@@H](CCCNC(=N)N)NC(=O)[C@@H](CCCNC(=N)N)NC(=O)[C@@H](CCCNC(=N)N)NC(=O)[C@@H](CCCNC(=N)N)NC(=O)[C@@H](CCCNC(=N)N)NC(=O)[C@@H](CCCNC(=N)N)NC(=O)[C@@H](CCCNC(=N)N)NC(=O)[C@H](N)CCCNC(=N)N)C(=O)N[C@@H](Cc1ccccc1)C(=O)N1CCC[C@H]1C(=O)O [MUC1/CQC] (H-[dR][dR][dR][dR][dR][dR][dR][dR][dR]CQCRRKNYGQLDIFP-OH; N-terminus and C-terminus assumed) | – | decreases in nuclear MUC1-C levels | no effect | slowed growth | down-regulation of MUC1 expression | extensive areas of necrosis | arrest of tumor growth | blocked growth | effective in abrogating tumor growth | markedly necrotic | marked down-regulation of MUC1 expression
